Data reported in PubChem BioAssay AID2060887 (Molecular Pharmacology Branch, DTP, NCI, 2025).

Tested on: 782815-120-R-J1-PDC complex spheroid viability
Assay: Anticancer human tumor 782815-120-R-J1-PDC patient-derived colon adenocarcinoma cell line growth inhibition [RAS]
Details: for IC50: curve of first compound; for viability, T/C: stronger effect = lower value
Source text: RAS pathway inhibitors in Combinations in Complex Spheroids
A high-throughput screen of multi-cell type tumor spheroids was designed to identify active combinations of RAS pathway inhibitors and targeted small molecules. Complex spheroids include a stromal component modeled by human endothelial cells (HUVEC) and fibroblasts modeled by human mesenchymal stem cells (MSCs). The concentration ranges selected for each drug and investigational agent were based upon clinically achievable concentrations if the clinical Cmax of the agent was known.
Compounds. The drugs and investigational agents: abemaciclib (NSC768073), cobimetinib (NSC768068), divarasib (GDC6063, NSC841802), docetaxel (NSC628503), GDC-1971 (RLY-1971, NSC841576), gemcitabine (NSC613327), inavolisib (NSC800729), ipatasertib (NSC767898), KB-0742 (NSC834161), MRTX-1133 (NSC836407), osimertinib (NSC779217), RMC-4630 (NSC839698), RMC-6236 (NSC851965), RMC-6291 (NSC852671), Ro-3306 (NSC812927), sapanisertib (NSC764658), SN-38 (NSC673596), staurosporine (NSC755774), SY5609 (NSC837396), and tovorafenib (DAY101, NSC766906), were obtained from the National Cancer Institute (NCI) Developmental Therapeutics Program Chemical Repository. The FDA-approved anticancer drug set is available from the NCI Developmental Therapeutics Program. […] The stock solutions were prepared in dimethyl sulfoxide (DMSO, Sigma-Aldrich, St. Louis, MO, cat. D2650) at 800-fold the tested concentration and stored at -70 degrees C prior to their use. All drugs and investigational agents were tested over a range starting from a high concentration at or near the clinical Cmax and decreasing in half-log increments. If the clinical Cmax for an agent had not been determined, the highest concentration tested was 10 microM.
Cell Culture. All cells were maintained in an incubator at 37 degrees C and 5% CO2 with 95% humidity. The PDC lines were cultured according to standard operating procedures established by the NCI PDMR. All PDCs were thawed and cultured in Matrigel-coated flasks prepared with a working solution of 1X Ham's F-12 nutrient mix, without supplementation (Invitrogen, Waltham, MA, cat. 11765054), 100 U/mL penicillin-streptomycin (Invitrogen, cat. 15140122), and 2.5% Matrigel (Corning Inc., Corning, NY, cat. 354248) for the first three passages. The 362531-283-R-J2-PDC and 782815-120-R-J1-PDC lines were cultured in 6C/Colon 1B media, which includes advanced DMEM/F-12 (Thermo Fisher Scientific, cat. 12634028), 10 mM HEPES (Thermo Fisher Scientific, cat. 15630080), 1X GlutaMAX supplement (Thermo Fisher Scientific, cat. 35050061), 0.1 mg/mL primocin (InvivoGen, San Diego, CA, cat. ant-pm-2), 10% defined fetal bovine serum, heat inactivated (HyClone Laboratories Inc., Logan, UT, cat. SH30070.03HI), 50% L-WRN conditioned media (ATCC, cat. CRL-3276), 1.25 mM N-Acetyl-L-cysteine (Sigma-Aldrich, cat. A9165), 10 mM nicotinamide (Sigma-Aldrich, cat. N0636), 1X B-27 supplement (Thermo Fisher Scientific, cat. 17504044), 1X N-2 supplement (Thermo Fisher Scientific, cat. 17502048), 50 ng/mL human EGF (Thermo Fisher Scientific, cat. PHG0311), and 10 microM Y-27632 dihydrochloride (Tocris Bioscience, cat. 1254). The K12877-001-R-J1-PDC line was cultured in 6I media, which includes all 6C/Colon 1B media plus 10 ng/mL human FGF-10 (PeproTech, cat. 100-26), 1 ng/mL human FGF-2 (PeproTech, cat. 100-18B), 1 µM prostaglandin E2 (Tocris Bioscience, cat. 2296), […] hydrocortisone (Sigma-Aldrich, cat. H4001), and […] bovine insulin (Sigma-Aldrich, cat. I6634). The K86415-001-R-J1-PDC line was cultured in 6D media, which includes all 6C/Colon 1B media components minus the L-WRN conditioned media. The 485176-168-R4-J1-PDC was cultured in PANC media, which includes all 6C/Colon 1B media plus 100 ng/mL human FGF-10 (PeproTech, cat. 100-26), 500 nM SB-431542 (Selleckchem, cat. S1067), and 10 nM gastrin (Tocris Bioscience, cat. 3006). […]

[1] = second compound 0.0316 µM, first compound 0.0316 µM
[2] = second compound 0.0316 µM, first compound 0.1 µM
[3] = second compound 0.0316 µM, first compound 0.316 µM
[4] = second compound 0.0316 µM, first compound 1 µM
[5] = second compound 0.0316 µM, first compound 3.16 µM
[6] = second compound 0.0316 µM, first compound 10 µM
[7] = second compound 0.1 µM, first compound 0.0316 µM
[8] = second compound 0.1 µM, first compound 0.1 µM
[9] = second compound 0.1 µM, first compound 0.316 µM
[10] = second compound 0.1 µM, first compound 1 µM
[11] = second compound 0.1 µM, first compound 3.16 µM
[12] = second compound 0.1 µM, first compound 10 µM
[13] = second compound 0.316 µM, first compound 0.0316 µM
[14] = second compound 0.316 µM, first compound 0.1 µM
[15] = second compound 0.316 µM, first compound 0.316 µM
[16] = second compound 0.316 µM, first compound 1 µM
[17] = second compound 0.316 µM, first compound 3.16 µM
[18] = second compound 0.316 µM, first compound 10 µM
[19] = second compound 1 µM, first compound 0.0316 µM
[20] = second compound 1 µM, first compound 0.1 µM
[21] = second compound 1 µM, first compound 0.316 µM
[22] = second compound 1 µM, first compound 1 µM
[23] = second compound 1 µM, first compound 3.16 µM
[24] = second compound 1 µM, first compound 10 µM
[25] = second compound 3.16 µM, first compound 0.0316 µM
[26] = second compound 3.16 µM, first compound 0.1 µM
[27] = second compound 3.16 µM, first compound 0.316 µM
[28] = second compound 3.16 µM, first compound 1 µM
[29] = second compound 3.16 µM, first compound 3.16 µM
[30] = second compound 3.16 µM, first compound 10 µM
[31] = second compound 10 µM, first compound 0.0316 µM
[32] = second compound 10 µM, first compound 0.1 µM
[33] = second compound 10 µM, first compound 0.316 µM
[34] = second compound 10 µM, first compound 1 µM
[35] = second compound 10 µM, first compound 3.16 µM
[36] = second compound 10 µM, first compound 10 µM
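Also: spheroids exposed to compounds for 7 days before reading.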
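For viability, T/C in this document: 100% = DMSO vehicle control viability.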

## CC(C)NCC(C(=O)N1CCN(c2ncnc3c2C(C)CC3O)CC1)c1ccc(Cl)cc1 (centres undefined) + C#Cc1c(F)ccc2cc(O)cc(-c3ncc4c(N5CC6CCC(C5)N6)nc(OCC56CCCN5CC(F)C6)nc4c3F)c12
Second compound 0.0316 µM
  IC50: > 10 µM
Second compound 0.1 µM
  IC50: > 10 µM
Second compound 0.316 µM
  IC50: > 10 µM
Second compound 1 µM
  IC50: > 10 µM
Second compound 3.16 µM
  IC50: > 10 µM
Second compound 10 µM
  IC50: > 10 µM
[1]
  viability, T/C: 95.9%
[2]
  viability, T/C: 106%
[3]
  viability, T/C: 95.6%
[4]
  viability, T/C: 103%
[5]
  viability, T/C: 96.3%
[6]
  viability, T/C: 94.3%
[7]
  viability, T/C: 95.5%
[8]
  viability, T/C: 104%
[9]
  viability, T/C: 101%
[10]
  viability, T/C: 98.1%
[11]
  viability, T/C: 100%
[12]
  viability, T/C: 97%
[13]
  viability, T/C: 109%
[14]
  viability, T/C: 108%
[15]
  viability, T/C: 93.5%
[16]
  viability, T/C: 103%
[17]
  viability, T/C: 96.3%
[18]
  viability, T/C: 105%
[19]
  viability, T/C: 108%
[20]
  viability, T/C: 113%
[21]
  viability, T/C: 90.7%
[22]
  viability, T/C: 94.6%
[23]
  viability, T/C: 103%
[24]
  viability, T/C: 103%
[25]
  viability, T/C: 104%
[26]
  viability, T/C: 101%
[27]
  viability, T/C: 93.1%
[28]
  viability, T/C: 100%
[29]
  viability, T/C: 98.3%
[30]
  viability, T/C: 102%
[31]
  viability, T/C: 103%
[32]
  viability, T/C: 108%
[33]
  viability, T/C: 93.4%
[34]
  viability, T/C: 101%
[35]
  viability, T/C: 96.5%
[36]
  viability, T/C: 98.4%

## CC(Nc1ccc2c(c1)OCCn1cc(N3C(=O)OCC3C(F)F)nc1-2)C(N)=O (centres undefined) + C#Cc1c(F)ccc2cc(O)cc(-c3ncc4c(N5CC6CCC(C5)N6)nc(OCC56CCCN5CC(F)C6)nc4c3F)c12
Second compound 0.0316 µM
  IC50: > 10 µM
Second compound 0.1 µM
  IC50: > 10 µM
Second compound 0.316 µM
  IC50: > 10 µM
Second compound 1 µM
  IC50: > 10 µM
Second compound 3.16 µM
  IC50: > 10 µM
Second compound 10 µM
  IC50: > 10 µM
[1]
  viability, T/C: 94.1%
[2]
  viability, T/C: 98.6%
[3]
  viability, T/C: 99.9%
[4]
  viability, T/C: 89.7%
[5]
  viability, T/C: 96.6%
[6]
  viability, T/C: 91.8%
[7]
  viability, T/C: 95.7%
[8]
  viability, T/C: 102%
[9]
  viability, T/C: 92.9%
[10]
  viability, T/C: 90%
[11]
  viability, T/C: 100%
[12]
  viability, T/C: 94.1%
[13]
  viability, T/C: 99%
[14]
  viability, T/C: 99.2%
[15]
  viability, T/C: 87.9%
[16]
  viability, T/C: 99.8%
[17]
  viability, T/C: 101%
[18]
  viability, T/C: 94.6%
[19]
  viability, T/C: 106%
[20]
  viability, T/C: 101%
[21]
  viability, T/C: 89%
[22]
  viability, T/C: 97.2%
[23]
  viability, T/C: 87.7%
[24]
  viability, T/C: 103%
[25]
  viability, T/C: 111%
[26]
  viability, T/C: 92.4%
[27]
  viability, T/C: 97.8%
[28]
  viability, T/C: 87.4%
[29]
  viability, T/C: 97.5%
[30]
  viability, T/C: 95.4%
[31]
  viability, T/C: 102%
[32]
  viability, T/C: 95.9%
[33]
  viability, T/C: 79%
[34]
  viability, T/C: 92.6%
[35]
  viability, T/C: 89.1%
[36]
  viability, T/C: 81.2%
